Assay [1] addresses Beta-1 adrenergic receptor (Homo sapiens, UniProt P08588). The assay can be described thus: Displacement of [3H](-)CGP12177 from human beta1-AR expressed in CHOK1 cells after 2 hrs by TopCount microscintillation counting method. On the technique in general: In a radioligand displacement assay an active substance lowers the binding of a labelled ligand.
In assay [2] the target is Beta-2 adrenergic receptor (Homo sapiens, UniProt P07550). The assay can be described thus: Displacement of [3H](-)CGP12177 from human beta2-AR expressed in CHOK1 cells after 2 hrs by TopCount microscintillation counting method.
Sequence of Beta-2 adrenergic receptor (P07550 whole entry): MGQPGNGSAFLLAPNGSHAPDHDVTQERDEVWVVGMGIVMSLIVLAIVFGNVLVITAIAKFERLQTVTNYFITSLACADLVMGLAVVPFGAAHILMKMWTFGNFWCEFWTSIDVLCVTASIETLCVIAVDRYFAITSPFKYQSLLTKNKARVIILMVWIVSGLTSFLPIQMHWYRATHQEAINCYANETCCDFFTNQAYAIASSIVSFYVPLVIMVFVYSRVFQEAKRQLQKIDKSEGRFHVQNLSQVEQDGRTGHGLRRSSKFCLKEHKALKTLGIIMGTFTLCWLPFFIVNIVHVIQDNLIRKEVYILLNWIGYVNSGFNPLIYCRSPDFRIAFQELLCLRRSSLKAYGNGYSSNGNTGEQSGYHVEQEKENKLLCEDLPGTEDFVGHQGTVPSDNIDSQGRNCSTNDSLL

SMILES strings stand for the structures.

Sequence of Beta-1 adrenergic receptor (P08588 whole entry): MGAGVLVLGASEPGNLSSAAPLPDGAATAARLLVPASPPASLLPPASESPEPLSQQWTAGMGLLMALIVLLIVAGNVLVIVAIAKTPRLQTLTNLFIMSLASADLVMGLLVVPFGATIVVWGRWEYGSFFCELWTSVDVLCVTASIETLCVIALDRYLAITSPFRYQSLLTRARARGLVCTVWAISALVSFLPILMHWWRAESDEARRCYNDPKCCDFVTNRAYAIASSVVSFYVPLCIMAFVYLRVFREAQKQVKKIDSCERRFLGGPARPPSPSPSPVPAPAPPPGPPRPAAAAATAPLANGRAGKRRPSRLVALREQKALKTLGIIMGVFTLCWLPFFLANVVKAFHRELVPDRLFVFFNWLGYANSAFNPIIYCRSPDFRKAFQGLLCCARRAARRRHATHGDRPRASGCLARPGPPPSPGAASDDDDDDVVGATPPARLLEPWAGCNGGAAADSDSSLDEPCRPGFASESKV

The term Kd denotes the free concentration of one partner at which half of the binding sites on the other are occupied at equilibrium, for simple one-to-one binding. Read a high Kd as weaker binding. Regarding `Cc1cc(O)c(CN(C)C)c2c1C(=O)/C(=C/c1ccccc1)O2`, the Kd was 46.8 µM in assay [1] and 25.1 µM in assay [2].
Compound `CN(C)CCOc1ccc2ccccc2c1C=O` returned a Kd in assay [1] of 97.7 µM.
Still for that read-out and setting: in the case of `C[n+]1c(/C=C/Nc2ccccc2)sc2ccccc21` it was 257 µM.
Regarding `Cc1cc(O)c(CN2CCCC2)c2c1C(=O)/C(=C/c1cc3ccccc3o1)O2`, the Kd in assay [1] amounted to 38 µM; in assay [2], 14.5 µM.
In turn, `CCCCN(C)Cc1c(O)cc(C)c2c1O/C(=C\c1cc3cc(Br)ccc3o1)C2=O` showed a dissociation constant (Kd) in assay [2] of 17.8 µM.

The record behind these values is BindingDB's records for doi:10.1021/acsmedchemlett.6b00363 (Philipps University Marburg, 2017).
